Test results reported in ChEMBL document CHEMBL1135477, “Antifungal agents. 10. New derivatives of 1-[(aryl)[4-aryl-1H-pyrrol-3-yl]methyl]-1H-imidazole, synthesis, anti-candida activity, and quantitative structure-analysis relationship studies” (J Med Chem, 2002).

Molecular target: Lanosterol 14-alpha demethylase (Candida albicans (strain SC5314 / ATCC MYA-2876) (Yeast), UniProt P10613)
Assay: Anticandida activity- (MIC90 compound) / (MIC90 bifonazole)
Assay type: functional

Chain of Lanosterol 14-alpha demethylase (P10613 whole entry): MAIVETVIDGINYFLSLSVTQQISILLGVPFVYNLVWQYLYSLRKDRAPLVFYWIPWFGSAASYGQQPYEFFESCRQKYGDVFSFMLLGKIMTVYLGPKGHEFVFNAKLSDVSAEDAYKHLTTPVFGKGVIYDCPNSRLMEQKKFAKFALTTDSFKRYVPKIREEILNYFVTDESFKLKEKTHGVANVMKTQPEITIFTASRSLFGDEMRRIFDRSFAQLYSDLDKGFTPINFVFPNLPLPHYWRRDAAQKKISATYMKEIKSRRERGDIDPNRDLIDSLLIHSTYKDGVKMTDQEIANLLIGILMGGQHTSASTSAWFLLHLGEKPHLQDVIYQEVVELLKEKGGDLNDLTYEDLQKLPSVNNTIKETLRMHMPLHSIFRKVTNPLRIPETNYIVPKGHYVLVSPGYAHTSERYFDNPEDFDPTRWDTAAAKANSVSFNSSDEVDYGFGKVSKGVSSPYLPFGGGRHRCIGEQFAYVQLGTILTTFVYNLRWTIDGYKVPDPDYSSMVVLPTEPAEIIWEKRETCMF

Row | Ratio | SMILES
1 | 4 | COc1ccc([C@H](Cc2ccc(Cl)cc2)n2ccnc2)cc1
2 | 3.6 | COc1ccc([C@@H](Cc2ccc(Cl)cc2Cl)n2ccnc2)cc1
3 | 58 | COc1ccc([C@H](Cc2cccc(-n3cccc3)c2)n2ccnc2)cc1
4 | 63 | COc1ccc([C@H](Cc2ccccc2F)n2ccnc2)cc1
5 | 63 | COc1ccc([C@H](Cc2ccccc2Cl)n2ccnc2)cc1
6 | 63 | COc1ccc([C@H](Cc2ccc(Cl)cc2)n2cnnc2)cc1
7 | 2.1 | COc1ccc([C@H](Cc2ccc(N)cc2)n2ccnc2)cc1
8 | 16 | COc1ccc([C@H](Cc2ccc(F)cc2)n2ccnc2)cc1
9 | 40 | Clc1ccc(-c2cn(Cc3ccc(Cl)cc3Cl)cc2[C@@H](c2ccccc2)n2ccnc2)cc1
10 | 22 | Clc1ccc(Cn2cc(-c3ccccc3)c([C@@H](c3ccccc3)n3ccnc3)c2)c(Cl)c1
11 | 41 | COc1ccc(-c2cn(Cc3ccc(Cl)cc3Cl)cc2[C@@H](c2ccccc2)n2ccnc2)cc1
12 | 1 | Fc1ccc(-c2c[nH]cc2[C@@H](c2ccccc2)n2ccnc2)cc1
13 | 0.46 | Clc1ccc(-c2c[nH]cc2[C@@H](c2ccccc2)n2ccnc2)cc1
14 | 1 | Fc1ccc([C@@H](c2ccn(-c3ccc(F)cc3)c2)n2ccnc2)cc1
15 | 0.89 | Cc1ccc([C@H](c2ccn(-c3ccc(Cl)cc3)c2)n2ccnc2)cc1
16 | 4 | Fc1ccc(-n2ccc([C@@H](c3ccccc3)n3ccnc3)c2)cc1
17 | 1.9 | Cc1ccc([C@H](c2ccn(-c3ccc(F)cc3)c2)n2ccnc2)cc1
18 | 4 | Cn1cc(-c2ccc(F)cc2)c([C@@H](c2ccccc2)n2ccnc2)c1
19 | 42 | Cc1ccc(-c2cn(Cc3ccc(Cl)cc3Cl)cc2[C@@H](c2ccccc2)n2ccnc2)cc1
20 | 4 | Cn1cc(-c2ccccc2)c([C@H](c2ccccc2)n2ccnc2)c1
21 | 3.8 | Cc1ccc(-c2cn(C)cc2[C@@H](c2ccccc2)n2ccnc2)cc1
22 | 7.2 | COc1ccc([C@H](Cc2ccccc2-n2cccc2)n2ccnc2)cc1
23 | 64 | COc1ccc(C[C@@H](c2ccc(OC)cc2)n2cnnc2)cc1
24 | 123 | COc1ccc([C@H](Cc2ccccc2[N+](=O)[O-])n2ccnc2)cc1
25 | 66 | COc1ccc([C@H](Cc2cccc(F)c2)n2ccnc2)cc1
26 | 0.9 | Cn1cc(-c2ccc(Cl)cc2)c([C@@H](c2ccccc2)n2ccnc2)c1
27 | 2 | Fc1ccc([C@H](c2ccn(-c3ccccc3)c2)n2ccnc2)cc1
